These are literature values, as cited in US12702690B2, “Cannabinoid compositions and dosage forms for intranasal or inhalational delivery” (RHODES TECHNOLOGIES, priority 2020, dated 2026).

The conditions of data set [1]: background statement.
For data set [2] the following is noted: following ingestion; Sharma et al. 2012.

Consider `CCCCCc1cc(O)c2c(c1)OC(C)(C)C1CCC(C)=CC21` (single isomer, unassigned; (-)) [Dronabinol, (−)-trans-Δ^9-tetrahydrocannabinol], for which the solubility in water result in data set [1] is listed as “insoluble in water”. For the same compound, in data set [2], the “time at which systemic absorption peaks” value is 1 to 2 h.
